Assay results: ChEMBL document CHEMBL1201862, “PubChem BioAssay data set” (2004)
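Five concentrations, 48 hours, 96-well plates. The concentration for 50% growth inhibition is given as GI50.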 Activity calls are given as the source filed them. Rule as the data show it: active = GI50 up to about 1.1 µM and inactive = higher.

Columns and labels:
Test in all cases: inhibition of tumour cell growth, NCI panel, 48 h
A498 = system: A498
A549 = system: A549
COLO 205 = system: COLO 205
HL-60 = system: HL-60
HOP-62 = system: HOP-62
KM12 = system: KM12
Malme-3M = system: Malme-3M
OVCAR-3 = system: OVCAR-3
OVCAR-8 = system: OVCAR-8
RPMI-8226 = system: RPMI-8226
SF-268 = system: SF-268
SF-539 = system: SF-539
SNB-19 = system: SNB-19
SNB-75 = system: SNB-75
SR = system: SR
SW-620 = system: SW-620
TK-10 = system: TK-10
UACC-257 = system: UACC-257

Measured: GI50

CCN1CCC(O)(c2ccc(C)cc2)C(C(=O)c2ccc(C)cc2)C1 (centres undefined)
inactive: A498 > 59.2 µM | A549 > 75.9 µM | COLO 205 23.6 µM | HL-60 20.3 µM | HOP-62 > 100 µM | KM12 33.1 µM | Malme-3M 19.5 µM | OVCAR-3 21.9 µM | OVCAR-8 25.5 µM | RPMI-8226 12.9 µM | SF-268 > 53 µM | SF-539 > 43.5 µM | SNB-19 > 80.7 µM | SNB-75 71.9 µM | SR 23.9 µM | SW-620 16.8 µM | TK-10 > 44.5 µM | UACC-257 19.1 µM

O=[N+]([O-])c1ccc(C2=NN(c3ccccc3)C[N+](c3ccc(Br)cc3)=N2)cc1
inactive: A498 > 100 µM | A549 82 µM | COLO 205 > 100 µM | HOP-62 > 100 µM | KM12 > 100 µM | Malme-3M > 100 µM | OVCAR-8 > 100 µM | RPMI-8226 > 100 µM | SF-268 60.5 µM | SF-539 46 µM | SNB-19 > 100 µM | SNB-75 > 100 µM | SR 96.8 µM | SW-620 > 100 µM | TK-10 > 100 µM | UACC-257 > 100 µM

O=c1oc2ccccc2c(O)c1C(C/C(CCN1CCCC1)=N\Nc1ccccc1)c1ccccc1 (centres undefined)
inactive: A498 > 100 µM | A549 > 100 µM | HL-60 24.2 µM | HOP-62 94.2 µM | KM12 60.5 µM | Malme-3M 78.5 µM | OVCAR-3 53.5 µM | OVCAR-8 > 100 µM | RPMI-8226 27.1 µM | SF-268 > 100 µM | SF-539 88.9 µM | SNB-19 69.5 µM | SNB-75 > 100 µM | SR 31.2 µM | SW-620 44.6 µM | TK-10 > 100 µM | UACC-257 77.8 µM

O=C(c1ccccc1)C(C(=O)c1ccccc1)C1(O)C(=O)c2ccccc2C1=O
inactive: A498 47.4 µM | A549 29.3 µM | COLO 205 45.4 µM | HL-60 16.7 µM | HOP-62 29.4 µM | KM12 51.5 µM | Malme-3M 24.2 µM | OVCAR-3 26.6 µM | OVCAR-8 25.6 µM | RPMI-8226 31.1 µM | SF-268 24.7 µM | SF-539 32.1 µM | SNB-19 37.3 µM | SNB-75 24.8 µM | SR 29.1 µM | SW-620 38.7 µM | TK-10 3.01 µM | UACC-257 38.4 µM

CC(C)CCCC(C)C1CCC2C3CC([N+](=O)[O-])=C4CC(O)CCC4(C)C3CCC12C (centres undefined)
inactive: A498 21.8 µM | A549 23.2 µM | COLO 205 24.3 µM | HL-60 25 µM | HOP-62 19.9 µM | KM12 16.4 µM | Malme-3M 19.8 µM | OVCAR-3 23.9 µM | OVCAR-8 21.7 µM | RPMI-8226 5.02 µM | SF-268 24.3 µM | SF-539 11.5 µM | SNB-75 17.1 µM | SR 15 µM | SW-620 25.9 µM | TK-10 21 µM | UACC-257 10.8 µM

OCC(O)CNc1ccnc2cc(Cl)ccc12 (centres undefined)
inactive: A498 > 100 µM | A549 > 100 µM | COLO 205 > 100 µM | HL-60 > 100 µM | HOP-62 > 100 µM | KM12 > 100 µM | Malme-3M > 100 µM | OVCAR-3 > 100 µM | OVCAR-8 > 100 µM | RPMI-8226 > 100 µM | SF-268 > 100 µM | SF-539 > 100 µM | SNB-19 > 100 µM | SNB-75 > 100 µM | SR > 100 µM | SW-620 > 100 µM | TK-10 > 100 µM | UACC-257 > 100 µM

O=C(NCc1cccnc1)C1COc2cc(-c3cc(=O)c4ccccc4o3)ccc2O1 (centres undefined)
inactive: A498 > 61.4 µM | A549 5.79 µM | COLO 205 > 100 µM | HL-60 > 46.5 µM | HOP-62 10.1 µM | KM12 > 36.1 µM | Malme-3M > 64.6 µM | OVCAR-3 > 100 µM | OVCAR-8 3.64 µM | RPMI-8226 > 100 µM | SF-268 3.89 µM | SF-539 3.04 µM | SNB-19 19.8 µM | SNB-75 3.49 µM | SR 5.46 µM | SW-620 > 100 µM | TK-10 > 57.9 µM | UACC-257 4.94 µM

c1cnn(CN(Cn2cccn2)Cn2cccn2)c1
inactive: A498 > 100 µM | A549 > 100 µM | COLO 205 > 100 µM | HL-60 > 100 µM | HOP-62 > 100 µM | KM12 > 100 µM | OVCAR-3 > 100 µM | OVCAR-8 > 100 µM | RPMI-8226 35.5 µM | SF-268 > 100 µM | SF-539 > 100 µM | SNB-19 > 100 µM | SNB-75 > 100 µM | SR > 100 µM | SW-620 > 100 µM | TK-10 > 100 µM | UACC-257 > 100 µM

CN/C=C(/c1ccc(OC)cc1)C(O)c1ccc(OC)c(OC)c1 (centres undefined)
inactive: A498 > 100 µM | A549 > 100 µM | COLO 205 > 100 µM | HL-60 > 100 µM | HOP-62 > 100 µM | KM12 > 100 µM | Malme-3M > 100 µM | OVCAR-3 > 100 µM | OVCAR-8 > 100 µM | RPMI-8226 > 100 µM | SF-539 > 100 µM | SNB-19 > 100 µM | SNB-75 69.8 µM | SR > 100 µM | SW-620 > 100 µM | TK-10 > 100 µM | UACC-257 > 100 µM

O=C(O/N=C1/CCC/C1=C\c1ccccc1)c1ccc(Cl)c(Cl)c1
inactive: A498 > 100 µM | A549 > 100 µM | COLO 205 > 100 µM | HL-60 > 100 µM | HOP-62 > 100 µM | KM12 > 100 µM | Malme-3M > 100 µM | OVCAR-3 > 100 µM | OVCAR-8 > 100 µM | RPMI-8226 > 100 µM | SF-268 > 100 µM | SF-539 > 100 µM | SNB-75 > 100 µM | SR > 100 µM | SW-620 > 100 µM | TK-10 > 100 µM | UACC-257 > 100 µM

COc1ccc2c3c([nH]c2c1[N+](=O)[O-])C(C)N(C(=O)/C=C/c1ccccc1)CC3 (centres undefined)
inactive: A498 2.62 µM | A549 14.3 µM | COLO 205 3.46 µM | HL-60 2.64 µM | HOP-62 5.28 µM | KM12 4.24 µM | OVCAR-3 4.8 µM | OVCAR-8 3.91 µM | RPMI-8226 2.78 µM | SF-268 1.7 µM | SF-539 10.8 µM | SNB-19 36.9 µM | SR 3.92 µM | SW-620 3.56 µM | TK-10 60.3 µM | UACC-257 3.83 µM
